Data on one molecule can be found in paper PMC9145196, “The Antileukemic and Anti-Prostatic Effect of Aeroplysinin-1 Is Mediated through ROS-Induced Apoptosis via NOX Activation and Inhibition of HIF-1a Activity” (Life, 2022).

Structures are written as SMILES.

Test [1] deals with T1, topo IIα (Homo sapiens, UniProt P11388).
T1 construct: gene TOP2A
Kind of test: cell-free topo II relaxation assay of supercoiled pHOT1 plasmid DNA. Format: biochemical.

Test [2] concerns the target T2, Hsp90 (Homo sapiens, UniProt P07900).
T2 construct: gene HSP90AA1; HSP90 recombinant protein
Description: protein thermal shift assay (Sypro Orange), Tm increase at […] Apl-1. Format: binding.

T1 sequence (P11388 whole entry): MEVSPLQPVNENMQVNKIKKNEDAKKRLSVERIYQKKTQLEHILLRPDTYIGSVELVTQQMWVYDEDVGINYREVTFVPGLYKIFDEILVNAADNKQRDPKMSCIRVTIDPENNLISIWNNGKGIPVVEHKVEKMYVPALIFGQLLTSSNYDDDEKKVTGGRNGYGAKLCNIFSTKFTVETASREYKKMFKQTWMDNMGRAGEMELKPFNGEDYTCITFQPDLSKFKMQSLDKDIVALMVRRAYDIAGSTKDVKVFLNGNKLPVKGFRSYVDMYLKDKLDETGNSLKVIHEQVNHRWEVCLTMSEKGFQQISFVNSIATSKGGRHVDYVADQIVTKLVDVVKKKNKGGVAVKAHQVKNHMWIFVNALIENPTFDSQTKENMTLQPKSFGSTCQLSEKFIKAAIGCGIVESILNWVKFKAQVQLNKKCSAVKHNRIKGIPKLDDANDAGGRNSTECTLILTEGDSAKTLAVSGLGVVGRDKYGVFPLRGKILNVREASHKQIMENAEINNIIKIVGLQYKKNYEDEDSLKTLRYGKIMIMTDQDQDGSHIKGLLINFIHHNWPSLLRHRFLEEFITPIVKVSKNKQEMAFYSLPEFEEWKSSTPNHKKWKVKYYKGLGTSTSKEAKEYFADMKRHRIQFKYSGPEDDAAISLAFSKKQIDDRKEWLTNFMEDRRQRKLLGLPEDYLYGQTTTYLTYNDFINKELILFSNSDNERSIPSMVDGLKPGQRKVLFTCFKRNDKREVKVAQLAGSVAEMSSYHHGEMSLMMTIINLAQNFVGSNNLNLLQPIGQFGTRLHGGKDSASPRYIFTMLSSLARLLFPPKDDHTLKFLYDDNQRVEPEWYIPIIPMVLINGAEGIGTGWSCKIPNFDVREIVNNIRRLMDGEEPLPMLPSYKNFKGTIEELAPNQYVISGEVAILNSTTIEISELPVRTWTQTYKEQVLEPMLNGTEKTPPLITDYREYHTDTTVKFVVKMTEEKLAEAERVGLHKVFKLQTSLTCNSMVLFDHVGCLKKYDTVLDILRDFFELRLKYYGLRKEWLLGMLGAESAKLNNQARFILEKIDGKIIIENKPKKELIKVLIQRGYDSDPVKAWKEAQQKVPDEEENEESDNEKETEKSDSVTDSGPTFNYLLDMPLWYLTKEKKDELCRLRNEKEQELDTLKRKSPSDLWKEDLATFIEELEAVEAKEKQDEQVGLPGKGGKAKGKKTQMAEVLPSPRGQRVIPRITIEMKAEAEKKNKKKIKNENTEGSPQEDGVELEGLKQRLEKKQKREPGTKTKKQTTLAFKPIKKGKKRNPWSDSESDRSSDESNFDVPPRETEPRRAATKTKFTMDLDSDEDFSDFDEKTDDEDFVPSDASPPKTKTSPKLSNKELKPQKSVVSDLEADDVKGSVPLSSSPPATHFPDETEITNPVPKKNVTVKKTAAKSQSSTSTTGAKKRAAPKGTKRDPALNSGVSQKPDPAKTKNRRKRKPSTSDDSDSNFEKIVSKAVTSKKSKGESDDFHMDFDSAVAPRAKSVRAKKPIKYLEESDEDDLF

In general, IC50 refers to the concentration at which inhibition is half-maximal. As a reminder, the ΔTm is the change in melting temperature against a reference sample. In test [1], `COC1=C(Br)[C@H](O)[C@](O)(CC#N)C=C1Br` [Apl-1, aeroplysinin-1] had an IC50 of 1370 nM. For the same molecule, the ΔTm at 2950 µM in test [2] stood at 46.4 ± 7.4 °C.
